One assay deals with T1, Nav1.5 (Homo sapiens, UniProt Q14524).
T1 construct: ChanTest Corp; host or cells: CHO cells (Chinese hamster)
Description: Patch clamp testing, Nav1.5 ion channel inhibition (SyncroPatch 384PE). It is filed as cell-based. On the procedure:
Cells were cultured in Ham's F-12 medium supplemented with 10% fetal bovine serum, 100 U/mL penicillin G sodium, 100 μg/mL streptomycin sulfate, and 500 μg/mL G418 aminoglycoside antibiotic.
(§1) Each compound was analyzed at concentrations of 1000 μM, 300 μM, 100 μM, 30 μM, 10 μM, 3 μM, 1 μM, and 0.3 μM. […] All tested compound formulations contained 0.3% DMSO. Each concentration of each compound was loaded into a well of a 384-well polypropylene compound plate using an automated liquid handling system (Integra Assist Plus, Integra) and then placed in the plate well of SyncroPatch 384PE (SP384PE; Nanion Technologies, Livingston, NJ) immediately before application of the cells.
In general terms: In patch-clamp work, channel activity is measured electrically.

The target in another assay is T2, Nav1.7 (Homo sapiens, UniProt Q15858).
T2 construct: ChanTest Corp; host or cells: CHO cells (Chinese hamster)
T2 sequence (Q15858 whole entry): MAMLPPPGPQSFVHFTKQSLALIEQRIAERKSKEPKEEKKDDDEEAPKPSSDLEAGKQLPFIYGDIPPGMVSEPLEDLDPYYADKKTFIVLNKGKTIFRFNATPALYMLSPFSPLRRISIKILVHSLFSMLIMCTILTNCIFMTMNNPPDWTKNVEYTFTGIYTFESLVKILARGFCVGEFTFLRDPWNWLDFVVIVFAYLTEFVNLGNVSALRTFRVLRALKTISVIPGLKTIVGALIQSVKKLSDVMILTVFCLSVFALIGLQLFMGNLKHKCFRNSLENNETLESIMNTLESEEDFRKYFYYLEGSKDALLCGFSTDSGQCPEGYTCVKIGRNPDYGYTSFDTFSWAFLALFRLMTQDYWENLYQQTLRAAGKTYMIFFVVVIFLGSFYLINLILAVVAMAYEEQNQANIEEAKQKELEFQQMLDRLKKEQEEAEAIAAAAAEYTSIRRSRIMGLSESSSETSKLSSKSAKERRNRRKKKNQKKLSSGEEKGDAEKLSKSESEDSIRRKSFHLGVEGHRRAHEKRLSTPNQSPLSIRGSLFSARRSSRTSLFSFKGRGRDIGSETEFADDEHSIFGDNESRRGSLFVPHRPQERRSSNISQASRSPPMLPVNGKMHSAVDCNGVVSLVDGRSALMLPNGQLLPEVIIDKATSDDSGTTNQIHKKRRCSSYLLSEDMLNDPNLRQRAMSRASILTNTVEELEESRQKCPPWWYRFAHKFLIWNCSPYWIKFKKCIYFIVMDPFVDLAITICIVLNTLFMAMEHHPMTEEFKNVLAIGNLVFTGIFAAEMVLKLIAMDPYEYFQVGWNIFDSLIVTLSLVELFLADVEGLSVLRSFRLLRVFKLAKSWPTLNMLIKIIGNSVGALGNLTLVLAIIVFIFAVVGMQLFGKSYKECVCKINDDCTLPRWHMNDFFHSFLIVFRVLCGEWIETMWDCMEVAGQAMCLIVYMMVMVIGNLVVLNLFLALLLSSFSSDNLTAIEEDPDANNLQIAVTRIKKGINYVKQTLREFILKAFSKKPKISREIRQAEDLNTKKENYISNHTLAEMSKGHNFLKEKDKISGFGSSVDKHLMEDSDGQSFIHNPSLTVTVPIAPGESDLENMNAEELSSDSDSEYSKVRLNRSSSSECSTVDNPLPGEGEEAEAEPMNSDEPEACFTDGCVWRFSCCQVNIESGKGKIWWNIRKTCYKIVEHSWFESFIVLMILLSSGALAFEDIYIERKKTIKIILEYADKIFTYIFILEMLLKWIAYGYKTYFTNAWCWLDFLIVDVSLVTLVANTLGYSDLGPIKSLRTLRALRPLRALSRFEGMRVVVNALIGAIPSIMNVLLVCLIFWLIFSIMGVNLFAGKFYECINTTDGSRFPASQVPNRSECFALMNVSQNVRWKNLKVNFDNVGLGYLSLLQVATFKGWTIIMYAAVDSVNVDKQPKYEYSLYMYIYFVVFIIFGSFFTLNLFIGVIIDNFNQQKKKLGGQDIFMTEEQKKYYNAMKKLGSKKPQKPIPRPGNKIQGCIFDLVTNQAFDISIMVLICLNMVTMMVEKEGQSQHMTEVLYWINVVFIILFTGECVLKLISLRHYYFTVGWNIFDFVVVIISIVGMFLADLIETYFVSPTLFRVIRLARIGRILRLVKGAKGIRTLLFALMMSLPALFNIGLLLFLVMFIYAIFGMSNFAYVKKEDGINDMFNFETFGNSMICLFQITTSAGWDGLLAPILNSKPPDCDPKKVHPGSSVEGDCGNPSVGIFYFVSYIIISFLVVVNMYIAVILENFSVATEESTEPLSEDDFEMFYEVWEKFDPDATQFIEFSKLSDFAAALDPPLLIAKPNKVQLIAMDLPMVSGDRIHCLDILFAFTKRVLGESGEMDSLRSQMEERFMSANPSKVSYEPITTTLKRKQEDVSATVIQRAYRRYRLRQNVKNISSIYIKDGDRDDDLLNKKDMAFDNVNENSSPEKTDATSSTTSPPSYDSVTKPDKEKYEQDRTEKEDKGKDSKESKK
Description: Patch clamp testing, Nav1.7 ion channel inhibition (SyncroPatch 384PE). It is filed as cell-based. On the procedure:
An examination of the in vitro effects of the compounds consistent with the present disclosure on ion channels Nav1.5 (a sodium voltage-gated channel alpha subunit found predominantly in cardiac muscle cells) and Nav1.7 (a sodium voltage-gated channel alpha subunit normally expressed in high levels in nociceptive pain neurons at dorsal root ganglion (DRG) and trigeminal ganglion and in sympathetic ganglion neurons) was performed using adult epithelial (ovarian) tissue CHO cells of Chinese hamsters (C. griseus) […] transfected with human ion channel cDNAs (ATCC, Manassas, VA; ChanTest Corp., Cleveland, OH). Cells were cultured in Ham's F-12 medium supplemented with 10% fetal bovine serum, 100 U/mL penicillin G sodium, 100 μg/mL streptomycin sulfate, and 500 μg/mL G418 aminoglycoside antibiotic.
as §1
Observed IC50 values of the channel current inhibition for each test article are provided in Table 8 (Nav1.5 ion channel inhibition) and Table 9 (Nav1.7 ion channel inhibition).

[1] abbreviates: Inhibition of Nav1.5 Ion Channel IC50, TP1A, TP1A = Tonic Block, CHO cells transfected with human ion channel cDNA, 0.3% DMSO.
Where [2] appears, read: Inhibition of Nav1.5 Ion Channel IC50, TP2A, TP2A = Inactivated State-Dependent Block, CHO cells transfected with human ion channel cDNA, 0.3% DMSO.
Where [3] appears, read: Inhibition of Nav1.5 Ion Channel IC50, TP25B, TP25B = Use-Dependent Block, CHO cells transfected with human ion channel cDNA, 0.3% DMSO.
The mark [4] stands for this setting: TP1A = Tonic Block, CHO cells transfected with human ion channel cDNA, 0.3% DMSO, read-out: Inhibition of Nav1.7 Ion Channel IC50, TP1A.
[5] abbreviates: TP2A = Inactivated State-Dependent Block, CHO cells transfected with human ion channel cDNA, 0.3% DMSO, read-out: Inhibition of Nav1.7 Ion Channel IC50, TP2A.
Setting [6] is: TP25B = Use-Dependent Block, CHO cells transfected with human ion channel cDNA, 0.3% DMSO, read-out: Inhibition of Nav1.7 Ion Channel IC50, TP25B.
The mark [7] stands for this setting: read-out: Inhibition of Nav1.7 Ion Channel IC50, TP25B, TP25B = Use-Dependent Block, CHO cells transfected with human ion channel cDNA, 0.3% DMSO.

Each structure is given as a SMILES string. Like-named read-outs stand apart in the source and are kept apart here.

T1 sequence (Q14524 whole entry): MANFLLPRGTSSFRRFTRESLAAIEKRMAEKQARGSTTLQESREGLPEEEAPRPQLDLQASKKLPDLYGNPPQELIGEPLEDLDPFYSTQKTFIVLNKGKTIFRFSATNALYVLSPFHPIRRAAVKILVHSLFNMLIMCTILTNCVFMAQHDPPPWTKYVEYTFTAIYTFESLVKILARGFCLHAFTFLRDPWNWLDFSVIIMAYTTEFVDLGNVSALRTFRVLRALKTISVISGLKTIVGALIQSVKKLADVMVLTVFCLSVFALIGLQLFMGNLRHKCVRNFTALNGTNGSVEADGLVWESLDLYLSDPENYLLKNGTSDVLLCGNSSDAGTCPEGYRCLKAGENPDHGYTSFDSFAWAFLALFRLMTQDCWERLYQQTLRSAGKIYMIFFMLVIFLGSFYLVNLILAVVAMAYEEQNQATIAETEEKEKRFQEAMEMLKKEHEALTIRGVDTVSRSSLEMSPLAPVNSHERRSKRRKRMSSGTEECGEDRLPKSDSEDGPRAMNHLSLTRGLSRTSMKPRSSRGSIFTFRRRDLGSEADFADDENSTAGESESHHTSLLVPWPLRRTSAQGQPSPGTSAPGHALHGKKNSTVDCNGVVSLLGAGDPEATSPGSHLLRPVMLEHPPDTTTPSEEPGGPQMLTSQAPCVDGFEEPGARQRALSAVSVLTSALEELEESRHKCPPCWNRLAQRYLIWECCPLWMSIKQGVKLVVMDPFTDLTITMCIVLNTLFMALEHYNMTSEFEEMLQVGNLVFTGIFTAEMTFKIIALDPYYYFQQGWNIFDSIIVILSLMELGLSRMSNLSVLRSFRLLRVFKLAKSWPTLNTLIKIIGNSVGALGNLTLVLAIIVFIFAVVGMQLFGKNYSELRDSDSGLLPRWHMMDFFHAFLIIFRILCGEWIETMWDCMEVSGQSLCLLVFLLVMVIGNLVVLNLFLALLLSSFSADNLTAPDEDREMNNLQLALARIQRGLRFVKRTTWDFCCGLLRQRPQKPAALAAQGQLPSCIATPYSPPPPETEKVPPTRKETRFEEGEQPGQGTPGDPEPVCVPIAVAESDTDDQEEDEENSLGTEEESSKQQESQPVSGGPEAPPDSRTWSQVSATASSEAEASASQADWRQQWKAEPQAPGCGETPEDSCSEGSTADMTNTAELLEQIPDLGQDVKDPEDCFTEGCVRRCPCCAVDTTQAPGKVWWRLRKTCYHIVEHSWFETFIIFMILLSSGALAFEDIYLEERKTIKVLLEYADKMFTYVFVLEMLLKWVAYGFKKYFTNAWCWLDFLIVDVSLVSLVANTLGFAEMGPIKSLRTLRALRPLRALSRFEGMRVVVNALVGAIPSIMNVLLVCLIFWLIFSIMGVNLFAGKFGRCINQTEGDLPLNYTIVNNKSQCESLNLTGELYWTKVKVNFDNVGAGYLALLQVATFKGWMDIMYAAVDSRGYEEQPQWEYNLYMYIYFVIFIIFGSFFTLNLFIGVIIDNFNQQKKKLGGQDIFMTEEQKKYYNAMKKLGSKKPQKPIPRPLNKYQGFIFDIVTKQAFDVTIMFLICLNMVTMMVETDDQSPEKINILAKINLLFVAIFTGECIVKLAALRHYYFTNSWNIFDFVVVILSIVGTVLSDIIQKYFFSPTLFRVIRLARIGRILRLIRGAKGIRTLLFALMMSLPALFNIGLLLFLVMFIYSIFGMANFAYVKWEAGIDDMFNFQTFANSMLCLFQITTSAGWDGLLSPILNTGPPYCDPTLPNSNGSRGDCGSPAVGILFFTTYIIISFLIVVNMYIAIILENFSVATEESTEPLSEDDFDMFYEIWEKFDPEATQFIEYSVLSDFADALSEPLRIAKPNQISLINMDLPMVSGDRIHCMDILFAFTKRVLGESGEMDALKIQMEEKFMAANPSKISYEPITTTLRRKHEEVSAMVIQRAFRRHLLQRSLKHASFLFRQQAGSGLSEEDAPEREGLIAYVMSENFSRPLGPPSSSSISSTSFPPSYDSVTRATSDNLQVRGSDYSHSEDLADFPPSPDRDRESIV

As for `COc1ccc(N(C)C(=O)CN(CCN(C)C)c2cccc(Cl)c2F)cc1` [Compound 2300], the 50% inhibitory concentration (IC50) (as a rule, the point on the concentration scale where inhibition reaches its midpoint) against Nav1.5 (setting [1]) is 327 µM; against Nav1.5 (setting [2]) it was 307 µM; against Nav1.5 (setting [3]), 259 µM; at Nav1.7 (setting [4]), 546 µM; on Nav1.7 (setting [5]), 673 µM; at Nav1.7 (setting [6]), 626 µM.

As for `COc1ccc(N(C)C(=O)CN(CCN(C)C)c2cccc(OC(F)(F)F)c2)cc1` [Compound 2296], the IC50 turned out to be 254 µM against Nav1.5 (setting [1]); 236 µM on Nav1.5 (setting [2]); 222 µM against Nav1.5 (setting [3]); 265 µM at Nav1.7 (setting [4]); 231 µM at Nav1.7 (setting [5]); 210 µM on Nav1.7 (setting [6]).

Consider `COc1ccc(N(C)C(=O)CN(CCN(C)C)c2ccc(F)c(Cl)c2)cc1` [Compound 2299], for which the IC50 worked out at 515 µM on Nav1.5 (setting [1]); 449 µM at Nav1.5 (setting [2]); 505 µM at Nav1.5 (setting [3]); 393 µM at Nav1.7 (setting [4]); 315 µM on Nav1.7 (setting [5]); 334 µM at Nav1.7 (setting [6]).

Turning to `COc1ccc(N(CCN(C)C)CC(=O)N(C)c2ccc(OC)cc2)cc1` [Compound 2294], the IC50 against Nav1.5 (setting [1]), on Nav1.5 (setting [2]), against Nav1.5 (setting [3]), on Nav1.7 (setting [4]), on Nav1.7 (setting [5]) and on Nav1.7 (setting [6]) was > 1000 µM in each case.

As to `COc1ccc(N(C)C(=O)CN(CCN(C)C)c2cccc(Cl)c2)cc1` [Compound 2291], the half-inhibitory concentration (IC50) against Nav1.5 (setting [1]) is 808 µM; against Nav1.5 (setting [2]), 740 µM; on Nav1.5 (setting [3]), 693 µM; at Nav1.7 (setting [4]), 561 µM; at Nav1.7 (setting [5]), 463 µM; on Nav1.7 (setting [6]), 490 µM.

Take `COc1ccc(N(C)C(=O)CN(CCN)c2ccccc2)cc1` [Compound 2302]: the IC50 on Nav1.5 (setting [1]) was found to be 124 µM; at Nav1.5 (setting [2]), 96.8 µM; on Nav1.5 (setting [3]) it was 75.9 µM; on Nav1.7 (setting [4]), 70.2 µM; at Nav1.7 (setting [5]) it was 77.9 µM; on Nav1.7 (setting [6]), 55.4 µM.

For `CCN(CC)CC(=O)Nc1c(C)cccc1C` [Lidocaine, reference compound], the 50% inhibitory concentration (IC50) turned out to be 408 µM on Nav1.7 (setting [4]), 23.7 µM at Nav1.7 (setting [5]) and 113 µM on Nav1.7 (setting [6]).

Consider `COc1ccc(N(C)C(=O)CN(CCN2CCN(C)CC2)c2ccccc2)cc1` [Compound 2304], for which the IC50 against Nav1.5 (setting [1]) is > 1000 µM; against Nav1.5 (setting [2]), 880 µM; at Nav1.5 (setting [3]), 670 µM; at Nav1.7 (setting [4]) it was > 1000 µM; at Nav1.7 (setting [5]), > 1000 µM; on Nav1.7 (setting [6]), > 1000 µM.

As for `COc1ccc(N(C)C(=O)CN(CCN2CCCCC2)c2ccccc2)cc1` [Compound 2303], the half-inhibitory concentration (IC50) at Nav1.5 (setting [1]) was 16.6 µM; on Nav1.5 (setting [2]) it was 13.5 µM; against Nav1.5 (setting [3]), 9.5 µM; at Nav1.7 (setting [4]), 15 µM; at Nav1.7 (setting [5]) it was 14.5 µM; at Nav1.7 (setting [6]), 13.1 µM.

For the molecule `COc1ccc(N(C)C(=O)CN(CCN(C)C)c2cc(Cl)ccc2Cl)cc1` [Compound 2298], the IC50 at Nav1.5 (setting [1]) was 249 µM; against Nav1.5 (setting [2]), 240 µM; on Nav1.5 (setting [3]) it was 204 µM; on Nav1.7 (setting [4]), 273 µM; at Nav1.7 (setting [5]), 229 µM; on Nav1.7 (setting [6]), 220 µM.

Turning to `COc1ccc(N(C)C(=O)CN(CCN(C)C)c2ccc(Cl)c(C(F)(F)F)c2)cc1` [Compound 2297], the IC50 at Nav1.5 (setting [1]) came to 95.1 µM; against Nav1.5 (setting [2]), 91.2 µM; against Nav1.5 (setting [3]), 72.7 µM; on Nav1.7 (setting [4]), 74.7 µM; at Nav1.7 (setting [5]) it was 66.2 µM; at Nav1.7 (setting [6]), 54.4 µM.

Turning to `COc1ccc(N(C)C(=O)CN(CCN(C)C)c2ccc(Cl)c(Cl)c2)cc1` [Compound 2292], the concentration for half-maximal inhibition (IC50) at Nav1.5 (setting [1]) was found to be 208 µM; on Nav1.5 (setting [2]) it was 216 µM; at Nav1.5 (setting [3]), 193 µM; on Nav1.7 (setting [4]), 165 µM; on Nav1.7 (setting [5]), 162 µM; on Nav1.7 (setting [6]), 167 µM.

Regarding `COc1ccc(N(C)C(=O)CN(CCN(C)C)c2ccccc2)cc1` [Compound 2290], the IC50 against Nav1.5 (setting [1]), against Nav1.5 (setting [2]), on Nav1.5 (setting [3]), at Nav1.7 (setting [4]), on Nav1.7 (setting [5]) and on Nav1.7 (setting [6]) was > 1000 µM in each case.

For `COc1ccc(N(C)C(=O)CN(CCN(C)C)c2ccccc2C)cc1` [Compound 2295], the concentration for half-maximal inhibition (IC50) at Nav1.5, at Nav1.5 (setting [2]), at Nav1.5 (setting [3]), against Nav1.7, at Nav1.7 (setting [4]) and at Nav1.7 (setting [7]) was > 1000 µM each time.

Regarding `COc1ccc(N(C)C(=O)CN(CCN(C)C)c2ccccc2OC)cc1` [Compound 2293], the IC50 on Nav1.5, against Nav1.5 (setting [2]), at Nav1.5 (setting [3]), against Nav1.7, at Nav1.7 (setting [4]) and at Nav1.7 (setting [7]) was > 1000 µM in each case.

For the molecule `COc1ccc(N(C)C(=O)CN(CCN(C)C)c2ccccc2C(F)(F)F)cc1` [Compound 2301], the 50% inhibitory concentration (IC50) came to 265 µM against Nav1.5 (setting [1]); 243 µM at Nav1.5 (setting [2]); 154 µM at Nav1.5 (setting [3]); 312 µM at Nav1.7 (setting [4]); 275 µM on Nav1.7 (setting [5]); 235 µM at Nav1.7 (setting [6]).

The record behind these values is patent publication US11806323B2, “Topical anesthetics” (PTC Innovations, LLC, priority 2022, dated 2023).
